According to publication PMC4730192, “Ligand selectivity in tachykinin and natalisin neuropeptidergic systems of the honey bee parasitic mite Varroa destructor” (Scientific Reports, 2016):
No end group written: not given here.

Tests used:
[1] = target: T1, V. destructor TRP receptor (VdTRP-R) (Varroa destructor, UniProt A0A141CIT9); test: Aequorin calcium-mobilization reporter assay, VdTRP-R transiently expressed in CHO-K1 cells with Ga16; type: cell-based; conditions: for Receptor specificity among VdNTL-R, VdTRP-R and AmTRP-R (in words): expanded ligand test at two concentrations on the three receptors; for Agonistic activity, VdTRP-R 0.1μM: ligand 0.1 μM; for Agonistic activity, VdTRP-R 0.1μM / Agonistic activity, VdTRP-R 1μM: relative luminescence normalized by highest activity of endogenous ligand VdTRP3, 3 biological replications; for Agonistic activity, VdTRP-R 1μM: ligand 1 μM; for EC50: CHO-K1 cells, Ga16 + aequorin luminescence, 10-fold serial dilutions, logistic fitting of dose-response curves
T1 sequence (A0A141CIT9 1-437): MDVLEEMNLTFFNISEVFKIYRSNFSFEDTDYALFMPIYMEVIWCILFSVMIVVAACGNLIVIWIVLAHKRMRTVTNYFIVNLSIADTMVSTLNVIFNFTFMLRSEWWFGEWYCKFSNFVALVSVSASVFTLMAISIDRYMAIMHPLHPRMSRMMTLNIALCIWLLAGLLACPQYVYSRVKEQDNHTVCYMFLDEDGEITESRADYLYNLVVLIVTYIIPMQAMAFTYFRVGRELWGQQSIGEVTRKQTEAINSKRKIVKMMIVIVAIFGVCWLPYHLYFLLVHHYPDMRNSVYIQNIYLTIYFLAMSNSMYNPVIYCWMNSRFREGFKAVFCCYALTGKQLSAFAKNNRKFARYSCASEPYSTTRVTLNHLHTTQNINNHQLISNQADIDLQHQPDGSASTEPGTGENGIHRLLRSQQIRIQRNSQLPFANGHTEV
Source text: (§1) In this system, ligand-mediated G-protein-coupled receptor (GPCR) activation initiates calcium mobilization that is indicated by the increased luminescence of aequorin.
(§2) The PCR amplicons of the full open reading frames (ORFs) of the three receptors were initially cloned into the pGEMT easy vector (Promega) and transferred to the expression vector pcDNA3.1(+) (Invitrogen) using the common restriction enzymes in the multi-cloning site (EcoRI for AmTRPR, NotI for both VdNTLR and VdTRPR). The sequences of the inserts were confirmed by Sanger sequencing prior to heterologous expression. High-quality plasmid DNA prepared using the plasmid MIDIprep kit (Qiagen) was used for transient transfection. The methods for transient expression of aequorin and G-alpha16 in Chinese hamster ovary (CHO-K1) cells and the procedures for the assays were previously described. Thirty hours after the transfection, the cells were collected and preincubated with the coelenterazine (Invitrogen) for the functional assay as previously described. Serial dilutions (10-fold, ranging from 0.001 to 1000 nM) of the 10 endogenous ligands were used for treatment of the cells. These ten natural ligands included two […] and three […] predicted from the respective putative precursors and also included five AmTRP peptides. The elevated luminescence caused by intracellular calcium mobilization was measured for a continuous 20 seconds at every 100-ms interval. Dose response curves and EC50s of each ligand for each receptor were obtained by logistic fitting in Origin 8.6 (OriginLab).
(§3) The test ligands were mainly the NTL peptides of T. castaneum, D. melanogaster, B. mori, and Anopheles gambiae and two TRPs, TcTRP4 and DmTRP6. Two doses of each ligand were tested for each receptor: 1 and 0.1 μM for VdNTL-R and VdTRP-R and 1 and 0.01 μM for AmTRP-R.

[2] = target: T2, A. mellifera TRP receptor (AmTRP-R) (Apis mellifera, UniProt A0ACM8RFV8); test: Aequorin calcium-mobilization reporter assay, AmTRP-R transiently expressed in CHO-K1 cells with Ga16; type: cell-based; conditions: for Agonistic activity, AmTRP-R 0.01μM: ligand 0.01 μM; for Agonistic activity, AmTRP-R 0.01μM / Agonistic activity, AmTRP-R 1μM: relative luminescence normalized by highest activity of endogenous ligand AmTRP1, 3 biological replications; for Agonistic activity, AmTRP-R 1μM: ligand 1 μM; for EC50: CHO-K1 cells, Ga16 + aequorin luminescence, 10-fold serial dilutions, logistic fitting of dose-response curves; for Agonistic activity on AmTRP-R (in words): dose-response or expanded ligand test, 1 and 0.01 μM
T2 sequence (A0ACM8RFV8 1-421): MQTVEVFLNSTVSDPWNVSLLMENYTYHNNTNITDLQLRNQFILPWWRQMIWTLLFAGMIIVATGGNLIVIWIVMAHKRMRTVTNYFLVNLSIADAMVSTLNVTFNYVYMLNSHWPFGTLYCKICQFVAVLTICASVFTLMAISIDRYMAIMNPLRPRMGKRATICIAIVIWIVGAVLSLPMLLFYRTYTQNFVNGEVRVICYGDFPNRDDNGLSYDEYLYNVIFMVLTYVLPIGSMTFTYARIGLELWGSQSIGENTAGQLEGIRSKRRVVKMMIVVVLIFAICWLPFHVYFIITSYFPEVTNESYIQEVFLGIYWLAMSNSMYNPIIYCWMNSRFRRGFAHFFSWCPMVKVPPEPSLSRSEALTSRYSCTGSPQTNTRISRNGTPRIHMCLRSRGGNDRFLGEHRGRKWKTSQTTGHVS
Source text: as §1, §2, §3

[3] = target: T3, V. destructor NTL receptor (VdNTL-R) (Varroa destructor, UniProt A0A141CIT8); test: Aequorin calcium-mobilization reporter assay, VdNTL-R transiently expressed in CHO-K1 cells with Ga16; type: cell-based; conditions: for Agonistic activity, VdNTL-R 0.1μM: ligand 0.1 μM; for Agonistic activity, VdNTL-R 0.1μM / Agonistic activity, VdNTL-R 1μM: relative luminescence normalized by highest activity of endogenous ligand VdNTL1, 3 biological replications; for Agonistic activity, VdNTL-R 1μM: ligand 1 μM; for EC50: CHO-K1 cells, Ga16 + aequorin luminescence, 10-fold serial dilutions, logistic fitting of dose-response curves
T3 sequence (A0A141CIT8 1-461): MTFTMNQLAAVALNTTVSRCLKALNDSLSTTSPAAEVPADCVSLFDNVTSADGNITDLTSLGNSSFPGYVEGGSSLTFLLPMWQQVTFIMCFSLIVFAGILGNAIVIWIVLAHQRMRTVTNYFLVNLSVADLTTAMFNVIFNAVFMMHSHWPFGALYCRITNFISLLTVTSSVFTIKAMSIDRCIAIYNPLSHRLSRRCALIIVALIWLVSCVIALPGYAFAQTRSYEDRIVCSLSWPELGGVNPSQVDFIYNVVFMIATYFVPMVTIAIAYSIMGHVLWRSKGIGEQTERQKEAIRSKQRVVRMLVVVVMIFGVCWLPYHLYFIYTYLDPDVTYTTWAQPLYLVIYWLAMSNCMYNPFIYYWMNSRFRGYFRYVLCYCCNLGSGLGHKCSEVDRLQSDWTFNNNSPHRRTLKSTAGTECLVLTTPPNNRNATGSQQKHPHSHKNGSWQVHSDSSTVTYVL
Source text: as §1, §2, §3

[4] = system: pea aphid Acyrthosiphon pisum; conditions: by feeding; cited from earlier work
[5] = system: cockroach TRP myotropic bioassay; conditions: cited from earlier work
[6] = expanded ligand test, 1 and 0.1 μM

Substance	Agonistic activity, VdTRP-R 0.1μM [1]	Agonistic activity, VdTRP-R 1μM [1]	Agonistic activity, AmTRP-R 0.01μM [2]	Agonistic activity, AmTRP-R 1μM [2]	Agonistic activity, VdNTL-R 0.1μM [3]	Agonistic activity, VdNTL-R 1μM [3]	EC50 [2]	EC50 [1]	also measured
DLRQENDPFWGNR-NH2 [BmNTL3, NTL peptide of B. mori]	30.7 RLU	83.4 RLU	4.7 RLU	-0.8 RLU	0.4 RLU	0.1 RLU			Receptor specificity among VdNTL-R, VdTRP-R and AmTRP-R (in words) [1]: specifically activated only VdTRP-R
GGVPGFVGAR-NH2 [VdNTL2]							0.7 nM		Agonistic activity on AmTRP-R (in words) [2]: equally potent as the AmTRPs; EC50 [3]: 37 nM
NPRWEFRGKFVGVR-NH2 [AmTRP7]							0.8 nM	93 nM	Lower sensitivity of VdTRP-R relative to VdTRP3 ([1]; fold lower sensitivity versus VdTRP3): > 10 ×
pQA[Aib]SGFL[Aib]VRamide [compound 1888]	0.3 RLU	1 RLU	-0.4 RLU	62.9 RLU	-0.4 RLU	1.9 RLU			Agonistic activity on VdTRP-R (in words) [1, 6]: failing to show agonistic activity; Agonistic activity on AmTRP-R (in words) [2]: some activity; Agonistic activity on VdNTL-R (in words) [3, 6]: failing to show agonistic activity; Oral aphicidal activity [4]: potent oral aphicidal activity; Activity in a cockroach TRP myotropic bioassay [5]: highly potent activity
APMGFQGMR-NH2 [AmTRP2,3]								250 nM	
ASGQEEFGPFWANRa [TcNTL1, NTL peptide of T. castaneum]	2.2 RLU	60.7 RLU	4.6 RLU	-0.2 RLU	1 RLU	1.5 RLU			Receptor specificity among VdNTL-R, VdTRP-R and AmTRP-R (in words) [1]: specifically activated only VdTRP-R
HRNLFQVDDPFFATRa [DmNTL4, NTL peptide of D. melanogaster]	10.3 RLU	70.9 RLU	9.5 RLU	79.7 RLU	0.8 RLU	30.4 RLU			
AFHAMR-NH2 [VdTRP1]							95 nM	55 nM	
TEENPFWANR-NH2 [BmNTL5, NTL peptide of B. mori]	7.3 RLU	61.2 RLU	6 RLU	-0.2 RLU	0.3 RLU	0.4 RLU			Receptor specificity among VdNTL-R, VdTRP-R and AmTRP-R (in words) [1]: specifically activated only VdTRP-R
GSFFGMR-NH2 [VdTRP3, GSFFGMRa]	107.6 RLU	100 RLU	58 RLU	96.3 RLU		24.8 RLU	13 nM	4.3 nM	
ALMGFQGVR-NH2 [AmTRP1]	2.5 RLU	34.9 RLU	69 RLU	100 RLU		37.1 RLU	0.3 nM		
SIGGPAPGFVGAR-NH2 [VdNTL1]	1.3 RLU	18.6 RLU	60.2 RLU	98.4 RLU	96.2 RLU	100 RLU	4.5 nM		Difference in activity on AmTRP-R between VdNTL1 and VdNTL2 ([2]; VdNTL1 compared with VdNTL2): approximately 6 ×; EC50 [3]: 26 nM
AAPFHAMR-NH2 [VdTRP2]							95 nM	71 nM	
LQLRDLYNADDPFVPNRa [DmNTL5, NTL peptide of D. melanogaster]	0.7 RLU	3.1 RLU	6.5 RLU	-1.2 RLU	0.2 RLU	0.1 RLU			
